Results: PubChem BioAssay (NCI)
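Following 48 hours of exposure in 96-well plates, responses at five concentrations were used to interpolate endpoints linearly. Here, GI50 denotes the concentration required for 50% inhibition of growth. Definition used: TGI = concentration required for complete inhibition of growth.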 Where a SMILES comes first, the peptide text is derived from it. The star is where a group is joined. Cbz = O=C(OCc1ccccc1)*; Bn = c1ccc(C*)cc1

Legend:
Assay in all cases: DTP human tumour cell line panel, 48 h
ACHN renal = tested on: ACHN renal
HOP-62 NSCLC = tested on: HOP-62 NSCLC
NCI-H226 lung = tested on: NCI-H226 lung
NCI-H460 lung = tested on: NCI-H460 lung
OVCAR-5 ovarian = tested on: OVCAR-5 ovarian
SK-MEL-2 melanoma = tested on: SK-MEL-2 melanoma
SK-OV-3 ovarian = tested on: SK-OV-3 ovarian
UACC-257 melanoma = tested on: UACC-257 melanoma
HS 578T breast = tested on: HS 578T breast
LOX IMVI melanoma = tested on: LOX IMVI melanoma

SMILES	TGI (ACHN renal) [µM]	TGI (HOP-62 NSCLC) [µM]	TGI (NCI-H226 lung) [µM]	TGI (NCI-H460 lung) [µM]	TGI (OVCAR-5 ovarian) [µM]	TGI (SK-MEL-2 melanoma) [µM]	TGI (SK-OV-3 ovarian) [µM]	TGI (UACC-257 melanoma) [µM]	TGI (HS 578T breast) [µM]	TGI (LOX IMVI melanoma) [µM]	GI50 (ACHN renal) [µM]	GI50 (HOP-62 NSCLC) [µM]	GI50 (HS 578T breast) [µM]	GI50 (NCI-H226 lung) [µM]	GI50 (NCI-H460 lung) [µM]	GI50 (SK-MEL-2 melanoma) [µM]	GI50 (SK-OV-3 ovarian) [µM]	GI50 (UACC-257 melanoma) [µM]	GI50 (OVCAR-5 ovarian) [µM]
C[n+]1c2ccccc2c(CNCC(=O)O)c2ccccc21	2.59	19.1	15.5	14.8	28.5	12.6	15.7	23.8	–	–	–	–	–	–	–	–	–	–	–
COc1ccc2c(c1)C(OC)C1c3c(cc4c(c3-2)OCO4)CCN1C (centres undefined)	8.03	8.34	9.09	8.83	16.8	7.9	23.1	13	5.35	> 32	–	–	–	–	–	–	–	–	–
CS(=O)(=O)c1ccc2nc(-c3ccc(O)cc3)sc2c1	32.4	–	36.6	35.3	31.6	36.3	31.3	38.9	–	45.5	–	–	–	–	–	–	–	–	–
N=C(N)c1ccc(-c2ccc(-c3ccc4ccccc4c3)s2)s1	6.66	5.24	79.2	3.7	–	5.7	42.3	31.2	4.71	–	2.53	2.08	2.07	33.6	1.95	2.52	20.2	16.1	–
C=CCNC1=C2C[C@@H](C)C[C@H](OC)[C@H](O)[C@@H](C)/C=C(\C)[C@H](OC(N)=O)[C@@H](OC)/C=C\C=C(/C)C(=O)NC(=CC1=O)C2=O	32.2	23.1	28.9	15.9	22.6	19.1	58.8	21.3	47.5	2	–	–	–	–	–	–	–	–	–
COc1ccc(N2C(=O)/C(=C\c3ccccc3)SC2c2cc(OC)c(OC)c(OC)c2)cc1 (centres undefined)	> 100	> 100	> 100	–	> 100	75.9	> 100	> 100	> 100	> 100	–	–	–	–	–	–	–	–	–
C[P+](c1ccccc1)(c1ccc(Cl)cc1)c1ccc(Cl)cc1	> 100	70.4	88.6	> 100	71.5	46.3	> 100	32.6	78.2	32.5	–	–	–	–	–	–	–	–	–
O=C(CSCC(=O)N/N=C\c1ccc(O)c(O)c1O)N/N=C\c1ccc(O)c(O)c1O	22	–	53.1	56.3	–	84.5	> 100	50	80.8	4.76	–	–	–	–	–	–	–	–	–
NC(CCP(=O)(O)O)C(=O)O (centres undefined)	> 100	> 100	> 100	> 100	> 100	> 100	–	> 100	> 100	> 100	–	–	–	–	–	–	–	–	–
CCCCSCC(NC(=O)/C=C/c1c(C)[nH]c(=O)[nH]c1=O)C(=O)OC (centres undefined)	–	252	291	177	300	121	226	235	–	> 450	–	–	–	–	–	–	–	–	–
CN(C)CCOc1cc2c(c3ccccc13)-c1ccccc1C2O (centres undefined)	–	29	29.1	22	17.6	31.4	30.1	29.4	–	23.9	–	–	–	–	–	–	–	–	–
C=CCOCCC(CC=C)C(=O)CC(=O)OC (centres undefined)	> 100	> 100	> 100	> 100	> 100	> 100	> 100	> 100	–	> 100	–	–	–	–	–	–	–	–	–
c1ccc(-c2n(Cc3ccc4ccccc4c3)c3ccccc3[n+]2Cc2ccc3ccccc3c2)cc1	2.36	–	2.01	–	1.76	–	1.08	–	–	–	0.975	–	–	0.352	–	–	0.309	–	0.44
CCn1c(=O)c(C(=O)O)c(Cl)c2cc3c(cc21)OCO3	–	> 100	> 100	> 100	> 100	> 100	> 100	> 100	–	> 100	–	–	–	–	–	–	–	–	–
O=C(Nc1ccc(Cl)cc1)c1cc([N+](=O)[O-])ccc1O	> 100	9.26	12.6	> 79.8	81.6	11.3	25.4	16.7	–	19.5	–	–	–	–	–	–	–	–	–
O=CC1C(Cl)=Nc2nc3ccccc3n2C1c1ccccc1 (centres undefined)	33.3	44.2	38.1	> 100	79.6	27.3	–	58.2	25.4	29	–	–	–	–	–	–	–	–	–
Nc1nc(Cl)c2ncn(Cc3cccc(CCl)c3)c2n1	12.4	9.48	26.9	27	22.8	58.5	50.8	20.7	36.9	13.4	–	–	–	–	–	–	–	–	–
COC(=O)C(Cc1ccc(O)cc1)NC(=O)C(COCc1ccccc1)NC(=O)OCc1ccccc1 (centres undefined) (Cbz-Ser(Bn)-Tyr-OMe; configuration not given here)	31.2	33.6	36.9	14.3	36.7	40.8	31.4	39.5	53	41	–	–	–	–	–	–	–	–	–
C1CSCCSCSCCS1	> 100	> 100	> 100	> 100	> 100	> 100	> 100	> 100	> 100	> 100	–	–	–	–	–	–	–	–	–
O=C1c2cccc(O)c2C(=O)c2c(O)cccc21	> 100	> 100	> 100	> 100	> 100	> 100	> 100	> 100	–	> 100	–	–	–	–	–	–	–	–	–
O=[N+]([O-])c1cc(N=Nc2c(O)ccc3cc(S(=O)(=O)O)ccc23)c(O)c([N+](=O)[O-])c1	> 100	> 100	> 100	–	> 100	> 100	> 100	> 100	> 100	> 100	–	–	–	–	–	–	–	–	–
COc1ccc(-c2oc3cc(OC(C)=O)cc(OC(C)=O)c3c(=O)c2OC)cc1	45.8	42.4	–	37.5	47.3	–	80.6	34.7	–	27.9	–	–	–	–	–	–	–	–	–
CC(=O)OCC1OC(NC(=O)N(CCCl)N=O)C(OC(C)=O)C(OC(C)=O)C1OC(C)=O (centres undefined)	–	> 100	–	> 100	> 100	> 100	> 100	> 100	–	> 100	–	–	–	–	–	–	–	–	–
